# Measurements reported in patent publication US20030206968A1, “Fungicidal mixtures” (priority 1999, published 2003).
# Columns and labels:
# Format in all cases: in vivo
# Puccinia recondita [1] = assay: Greenhouse, Puccinia recondita on wheat, 2 days curative; settings: Example 28
# Protocol: (§1) The trials are carried out under greenhouse (Examples 1 to 32) or field conditions (Examples 33 to 40) in residual or curative applications. The fungicides are applied in single treatments, or in a combination comprising an azolopyrimidine of formula I and a compound selected from the classes (A), (B) and (C) as defined above. The compounds are applied in form of an aqueous spray mix obtained from a concentrated formulation or the technical material.
# (§2) 1. Seed is planted in 6 cm diameter plastic pots and maintained in the greenhouse.
# (§3) 2. When the primary leaf is fully expanded in the case of cereals or several leaves are present in the case of dicots, formulated test compounds are sprayed with a three nozzle overhead fungicide sprayer to near run-off. Alternatively, a single nozzle overhead track sprayer is used for application of the compounds to cereals at a rate of 200 l/ha. Plants are then allowed to air-dry.
# (§4) 3. Inoculation precedes treatment in the case of curative evaluations and follows treatment in case of residual evaluations. For inoculation of powdery mildew disease, plants are set up on greenhouse benches with bottom watering mats and inoculated by dusting them with conidia from infected plants. Between inoculation and treatment for curative evaluations and between treatment and inoculation for residual evaluations, plants are maintained in the greenhouse with bottom watering.
# (§5) For inoculation of non-powdery mildew diseases, an aqueous spore suspension of the pathogen is applied to the plant and the plants are kept 1-2 days in a moist infection chamber before being returned to the greenhouse where they are maintained by bottom watering.
# (§6) 4. Disease on the foliage as percent leaf area with disease symptoms/signs is evaluated about 7 days after inoculation. In the case of wheat, the tips and bases of the leaves are excluded from the evaluation. [formula]
# (§7) 1. Technical compounds are formulated in a solvent/surfactant system consisting of 5% acetone and 0.05% Tween 20 in deionized water. Compounds are dissolved in acetone prior to addition of the water; the Tween 20 can be added through either the acetone or the water. Dilutions are made using the solvent/surfactant system. Formulated compounds are prepared using deionized water.
# (§8) 2. Two kinds of controls are included: Plants treated with the solvent/surfactant solution and inoculated (Solvent Blank). Untreated plants which are inoculated (Inoculated Control).
# (§9) Assessments of the diseases took place at the indicated day after the application of the compounds. Per cent infected leaf area infected was evaluated. The efficacy of the compounds/compounds mixtures to control the diseases was calculated by using the formula given above under item 4: […]
# (§10) Synergy was calculated using the % disease control values of specific treatments for the two COLBY formula given hereinabove
# Fungicidal efficacy of the mixture of (S)-Azolopyrimidine C in admixture with Azoxystrobin or Trifloxystrobin (2 days curative) against Puccinia recondita on wheat. The tank mixes were obtained from technical material of (S)-Azolopyrimidine C and Azoxystrobin or Trifloxystrobin.
# Puccinia recondita [2] = assay: Greenhouse, Puccinia recondita on wheat, 4 days residual; settings: Example 31
# Protocol: as §1, §2, §3, §4, §5, §6, §7, §8, §9, §10
# Fungicidal efficacy of the mixture of (S)-Azolopyrimidine C in admixture with Azoxystrobin or Trifloxystrobin (4 days residual) against Puccinia recondita on wheat. The tank mixes were obtained from technical material of (S)-Azolopyrimidine C and Azoxystrobin or Trifloxystrobin.
# Blumeria graminis [3] = assay: Greenhouse, Blumeria graminis on barley, 4 days residual; settings: Example 32
# Protocol: as §1, §2, §3, §4, §6, §7, §8, §9, §10
# Fungicidal efficacy of the mixture of (S)-Azolopyrimidine C in admixture with Azoxystrobin (4 days residual) against Blumeria graminis on barley. The tank mixes were obtained from technical material of (S)-Azolopyrimidine C and Azoxystrobin.
# Pyrenophora teres = assay: Greenhouse, Pyrenophora teres on barley, 1 day residual; settings: Example 10
# Protocol: as §1, §2, §3, §4, §5, §6, §7, §8, §9, §10
# Fungicidal efficacy of the mixture of Azolopyrimidine C+metconazole (1 day residual) against Pyrenophora teres on barley The tank mix was obtained from a SC formulation containing 100 g Azolopyrimidine C per liter and an EC containing 100 g metconazole per liter.
# Alternaria solani = assay: Greenhouse, Alternaria solani on tomatoes, 1 day residual; settings: Example 25; rate 4 g/ha
# Protocol: as §1, §2, §3, §4, §5, §6, §7, §8, §9, §10
# Fungicidal efficacy of the mixture of Azolopyrimidine C and different fungicides (1 day residual) against Alternaria solani on tomatoes The tank mix was obtained from an SC formulation containing 100 g Azolopyrimidine A per liter and WP formulations of dithianon (750 g/kg), captan (500 g/kg), cyprodinil (750 g/kg), mancozeb (800 g/kg), or a SC formulation of chlorothalonil (500 g/l), or a FS formulation of fenpiclonil (400 g/l), spectively.
# Rhynchosporium secalis = assay: Greenhouse, Rhynchosporium secalis on barley, 1 day residual; settings: Example 8; dose rate 100 ppm
# Protocol: as §1, §2
# 2. When the primary leaf is fully expanded in the case of cereals or several leaves are present in the case of dicots, formulated test compounds are sprayed with a three nozzle overhead fungicide sprayer to near run-off. […]
# 4. Disease on the foliage as percent leaf area with disease symptoms/signs is evaluated about 7 days after inoculation. […]
# as §9
# Synergy was calculated using the % disease control values of specific treatments for the two COLBY formula given hereinabove […]
# Blumeria graminis [4] = assay: Greenhouse, Blumeria graminis on wheat, 1 day residual
# Excerpt: The fungicides are applied in single treatments, or in a combination comprising an azolopyrimidine of formula I and a compound selected from the classes (A), (B) and (C) as defined above. The compounds are applied in form of an aqueous spray mix obtained from a concentrated formulation or the technical material.
# as §2, §3, §4, §6, §7, §8, §9, §10
# Fungicidal efficacy of the mixture of Azolopyrimidine C+quinoxyfen (1 day residual)) against Blumeria graminis on wheat The tank mix was obtained from technical material of Azolopyrimidine C and quinoxyfen.
# Fungicidal efficacy of the mixture of Azolopyrimidine C+metalaxyl (1 day residual) against Blumeria graminis on wheat The tank mix was obtained from technical material of Azolopyrimidine C and metalaxyl.
# Fungicidal efficacy of the mixture of Azolopyrimidine C+famoxadone (1 day residual) against Blumeria graminis on wheat The tank mix was obtained from technical material of Azolopyrimidine C and famoxadone.
compound,measurement,setting,value
"5-chloro-6-(2,4,6-trifluorophenyl)-7-(1,1,1-trifluoroprop-2-ylamino)-[1,2,4]triazolo[1,5-a]pyrimidine [(S)-Azolopyrimidine C]",Observed Efficacy,Puccinia recondita [1]; dose rate 1.6 ppm,0%
same,Observed Efficacy,Puccinia recondita [1]; dose rate 3.1 ppm,0%
same,Observed Efficacy,Puccinia recondita [1]; dose rate 6.3 ppm,8%
same,Observed Efficacy,Puccinia recondita [1]; dose rate 12.5 ppm,23%
same,Observed Efficacy,Puccinia recondita [1]; dose rate 25 ppm,54%
same,Observed Efficacy,Puccinia recondita [2]; dose rate 3.1 ppm,0%
same,Observed Efficacy,Puccinia recondita [2]; dose rate 6.3 ppm,9%
same,Observed Efficacy,Puccinia recondita [2]; dose rate 12.5 ppm,16%
same,Observed Efficacy,Puccinia recondita [2]; dose rate 25 ppm,27%
same,Observed Efficacy,Puccinia recondita [2]; dose rate 50 ppm,50%
same,Observed Efficacy,Blumeria graminis [3]; dose rate 1.6 ppm,0%
same,Observed Efficacy,Blumeria graminis [3]; dose rate 3.1 ppm,3%
same,Observed Efficacy,Blumeria graminis [3]; dose rate 6.3 ppm,8%
same,Observed Efficacy,Blumeria graminis [3]; dose rate 12.5 ppm,17%
same,Observed Efficacy,Blumeria graminis [3]; dose rate 25 ppm,22%
same,Observed Efficacy,Blumeria graminis [3]; dose rate 50 ppm,28%
"CC(Nc1c(-c2c(F)cc(F)cc2F)c(Cl)nc2ncnn12)C(F)(F)F (centres unmarked) [Azolopyrimidine C, 5-chloro-6-(2,4,6-trifluorophenyl)-7-(1,1,1-trifluoroprop-2-ylamino)-[1,2,4]triazolo[1,5-a]pyrimidine]",Observed Efficacy,Pyrenophora teres; dose rate 10 ppm,0%
same,Observed Efficacy,Pyrenophora teres; dose rate 25 ppm,0%
same,Observed Efficacy,Pyrenophora teres; dose rate 40 ppm,0%
same,Observed Efficacy,Pyrenophora teres; dose rate 50 ppm,0%
same,Observed Efficacy,Pyrenophora teres; dose rate 125 ppm,0%
same,Observed Efficacy,Alternaria solani,25%
same,Observed Efficacy,Rhynchosporium secalis,15%
same,Observed Efficacy,"Blumeria graminis [4]; Example 16, dose rate 0.06 ppm",0%
same,Observed Efficacy,"Blumeria graminis [4]; Example 16, dose rate 0.25 ppm",19%
same,Observed Efficacy,"Blumeria graminis [4]; Example 16, dose rate 1 ppm",42%
same,Observed Efficacy,"Blumeria graminis [4]; Example 16, dose rate 4 ppm",96%
same,Observed Efficacy,"Blumeria graminis [4]; Example 17, dose rate 0.06 ppm",0%
same,Observed Efficacy,"Blumeria graminis [4]; Example 17, dose rate 0.25 ppm",19%
same,Observed Efficacy,"Blumeria graminis [4]; Example 17, dose rate 1 ppm",42%
same,Observed Efficacy,"Blumeria graminis [4]; Example 17, dose rate 4 ppm",96%
same,Observed Efficacy,"Blumeria graminis [4]; Example 18, dose rate 0.06 ppm",0%
same,Observed Efficacy,"Blumeria graminis [4]; Example 18, dose rate 0.25 ppm",19%
same,Observed Efficacy,"Blumeria graminis [4]; Example 18, dose rate 1 ppm",42%
same,Observed Efficacy,"Blumeria graminis [4]; Example 18, dose rate 4 ppm",96%
